Several values for one entry are separate records, joined by “and”; a condition that tells them apart may be missing. Identical values can stand only once.
Tests used:
[1] = molecular target: HCV NS3 protease T54A mutant (UniProt P27958, T1080A, species not given); settings: enzyme IC50 vs genotype 1a HCV-H reference strain
[2] = molecular target: HCV NS3 protease A156T mutant (UniProt P27958, A1182T, species not given); settings: enzyme IC50 vs genotype 1a HCV-H reference strain
[3] = system: wild-type HCV replicon Con1-mADE cells; experiment: microbe, parasite or virus in culture; settings: Hepatitis C virus, 48 h, read-out: Replicon IC50
Text: (§1) The stable wild-type (mADE) and variant HCV sub-genomic replicon cell lines were generated using the T7 RNA runoff transcripts from the corresponding high efficiency Con1 replicon plasmids.
(§2) The stable wild-type and variant HCV sub-genomic replicon cell lines were generated using the 17 RNA runoff transcripts from the corresponding high efficiency Con1 replicon plasmids.

[4] = system: HCV replicon cells, NS3 R155T variant; settings: for Fold change of replicon IC50: R155T IC50 divided by wild-type replicon IC50
Text: as §1, §2

[5] = system: wild-type HCV replicon Con1-mADE cells; settings: for Fold change of replicon IC50: wild-type replicon relative to itself
Text: as §1, §2

[6] = system: HCV variant mixture in patient plasma; experiment: Average phenotype for each patient; assay type: in vivo, patients; settings: for Average Phenotype: individual subjects
Text: The genotypic analyses performed here allowed a detailed examination of the relative proportion of different resistant mutants within each patient. To better understand the level of phenotypic resistance conferred by these viral mixtures, exploratory analyses were done to obtain an average phenotype for each patient. The percent of virions with a given single or double mutation was multiplied by the average fold change in enzyme IC50 for that given mutant (Table 3), and then all values were added for each patient. […] An analysis correlating pharmacokinetic data with resistance patterns is currently underway.

[7] = system: HCV replicon cells, NS3 R155M variant
Text: as §1, §2

[8] = system: HCV replicon cells, NS3 R155K variant
Text: as §1, §2

[9] = patients that continued to decline, follow-up
[10] = plateau group of patients, Day 14
[11] = rebound group of patients, Day 14
[12] = rebound group of patients, follow-up

With COc1ccc2c(O[C@@H]3C[C@H]4C(=O)N[C@]5(C(=O)O)C[C@H]5/C=C\CCCCC[C@H](NC(=O)OC5CCCC5)C(=O)N4C3)cc(-c3csc(NC(C)C)n3)nc2c1 [BILN 2061] the Fold change [1] was 2.3 fold and the Fold change [2] was >183 fold.

NC(=O)c1ncn([C@@H]2O[C@H](CO)[C@@H](O)[C@H]2O)n1 [Ribavirin, 1-beta-D-ribofuranosyl-1H-1,2,4-triazole-3-carboxamide] was tested, and the IC50 [3] was 58 ± 18 µM, the “Fold change of replicon IC50” value [4] was 0.6 ± 0.3 fold and the “Fold change of replicon IC50” value [5] was 1.0 ± 0.3 fold.

For CCC[C@H](NC(=O)[C@@H]1[C@H]2CCC[C@H]2CN1C(=O)[C@@H](NC(=O)[C@@H](NC(=O)c1cnccn1)C1CCCCC1)C(C)(C)C)C(=O)C(=O)NC1CC1 [VX-950], the IC50 [3] was 0.485 ± 0.108 µM, the “Average Phenotype” value ([6]; 450 mg, FU (7-10 days after ETR)) was 28.94 and 3.13 and 8.65 and 1.14 and 0.83 and 29.43 and 14.81 and the “Average Phenotype” value ([6]; 750 mg, ETR (Day 14)) was 466.14 and 466.00. The “Average Phenotype” value ([6]; 750 mg, FU (7-10 days after ETR)) was 9.33 and 45.74 and 126.48 and 9.65 and 3.17 and 4.92 and 0.00, the “Average Phenotype” value ([6]; 1250 mg, ETR (Day 14)) was 10.15 and 26.13 and 9.38 and 14.39 and 14.59 and 47.49 and 147.96 and 25.96 and 466.00 and the “Average Phenotype” value ([6]; 1250 mg, FU (7-10 days after ETR)) was 9.39 and 26.03 and 10.65 and 12.33 and 15.28 and 15.38 and 7.93 and 1.87 and 30.97. The “Average phenotype, mean value” [6, 9] was 4, the “Average phenotype, range” value [6, 9] was 0-10 and the “Average phenotype, mean value” [6, 10] was 272. For the same molecule, the “Average phenotype, range” value [6, 10] was 26-466, the “Average phenotype, mean value” ([6]; plateau group of patients, follow-up) was 32 and the “Average phenotype, mean value” [6, 11] was 27. The “Average phenotype, range” value [6, 11] was 6-70, the “Average phenotype, mean value” [6, 12] was 15 and the “Average phenotype, range” value [6, 12] was 3-29.

In the case of IFN-α, the “Fold change of replicon IC50” value ([7]; R155M IC50 divided by wild-type replicon IC50) is reported as 0.4 ± 0.1 fold, the “Replicon IC50” value ([7]; R155M replicon, 48-h assay, mean ± SD of three experiments) is reported as 4.9 ± 1.0 U/ml and the “Fold change of replicon IC50” value ([8]; R155K IC50 divided by wild-type replicon IC50) is reported as 1.3 ± 1.1 fold. The “Replicon IC50” value ([8]; R155K replicon, 48-h assay, mean ± SD of three experiments) was 15.2 ± 12.3 U/ml, the “Fold change of replicon IC50” value [4] was 0.4 ± 0.3 fold and the “Replicon IC50” value ([4]; R155T replicon, 48-h assay, mean ± SD of three experiments) was 4.8 ± 3.3 U/ml. The “Fold change of replicon IC50” value [5] was 1.0 ± 0.1 fold and the “Replicon IC50” value ([5]; wild-type replicon, 48-h assay, mean ± SD of three experiments) was 11.6 ± 1.1 U/ml.

— patent US8501450B2, “Hepatitis C virus variants” (priority 2005, dated 2013)
